Results taken from patent US6689783B2, “Aryl oxime-piperazines useful as CCR5 antagonists” (priority 2001, dated 2004).
pIC50: −log10 of the molar value. Counter-ions that a name gives are not always drawn.

Legend:
[1] = tested on: U87 cells stably expressing CD4 and the chemokine receptor CCR5; assay: HIV-1 entry assay (luciferase reporter virions); format: cell-based; details: Human immunodeficiency virus 1, U87/CD4/CCR5, read-out: Viral Entry IC50
Method: Several types of assays can be used to determine the CCR5 inhibitory and antagonistic activity of the compounds of the invention. Some are, for example, the CCR5 Membrane Binding Assay, the HIV-1 Entry Assay, HIV-1 Replication Assay, the Calcium Flux Assay, the GTPγS Binding Assay (secondary membrane binding assay) and the Chemotaxis Assay. Compounds of this invention were evaluated for their ability to inhibit CCR5 receptor mediated viral entry using an HIV-1 entry assay, which is described below:
Replication defective HIV-1 reporter virions are generated by cotransfection of a plasmid encoding the NL4-3 strain of HIV-1 (which has been modified by mutation of the envelope gene and introduction of a luciferase reporter plasmid) along with a plasmid encoding one of several HIV-1 envelope genes as described by Connor et al, Virology, 206 (1995), 935-944. Following transfection of the two plasmids by calcium phosphate precipitation, the viral supernatants are harvested on day 3 and a functional viral titer determined. These stocks are then used to infect U87 cells stably expressing CD4 and the chemokine receptor CCR5 which have been preincubated with or without test compound. Infections are carried out for 2 hours at 37° C., the cells washed and media replaced with fresh media containing compound. The cells are incubated for 3 days, lysed and luciferase activity determined. […]

melting point | Structure (SMILES) | pIC50 [1]
165 to 169 °C | CCON=C(c1ccc(OC(F)(F)F)cc1)N1CCN(C2(C)CCN(C(=O)c3c(C)ncnc3C)CC2)C[C@@H]1C (as salt: HCl) | –
– | CCON=C(c1ccc(C(F)(F)F)cc1)N1CCN(C2(C)CCN(C(=O)c3c(C)ncnc3C)CC2)C[C@@H]1C [Ih, 1-[(4,6-dimethyl-5-pyrimidinyl)carbonyl]-4-[4-[(ethoxyimino)[4-(trifluoromethyl)phenyl]methyl]-3(s)-methyl-1-piperazinyl]-4-methylpiperidine] | 7.78
